Measurements from patent US12233143B2, “Topical compositions containing rose oil and cannabidiol and methods of making and using the same” (priority 2019, dated 2025).
Values joined by “and” are separate entries in the source; they are usually repeats but may differ in a detail not shown here. Identical values can stand only once.

Experiments:
[1] = tested on: human keratinocyte stem cells (KSC); experiment: Migration of keratinocyte stem cells, scratch wound gap recovery; type: cell-based; details: 24 hours of incubation
Experimental: The effect of S-863d and S-863g on wound healing in keratinocytes was evaluated. The migration of human keratinocyte stem cells (KSC) was evaluated by measuring wound recovery using imaging on a system whereby a “wound gap” was created by scratching.
Materials: Human keratinocyte cells (KSC) were used at the third passage and cultured at 37° C. in the presence of 5% CO2. The NHEK cells were grown in keratinocyte serum free media supplemented with gentamycin (25 μg/mL), pituitary extract (PE) (25 μg/mL), and epidermal growth factor (EGF) (0.25 ng/ml). S-863d contained 3% phospholipids, 54% glycerin, 10% caprylic/capric triglyceride, 1% cannabidiol, 2% AlpineRoseActive™, 1% glycoin, 0.1% tocopherol, and water (ad 100%). The particle size (zAve) of S-863d was 90±50 nm, and the pH of S-863d was between 4.5 and 7.5. The total germ count of S-863d was <100 CFU/g. S-863d was stored at 4° C. in a dark space in a closed container. S-863g (negative control) contained 1% CBD in DMSO. S-863d was evaluated at 0.004%, 0.02%, and 0.1%. S-863g was evaluated at 0.00044%, 0.0013%, and 0.004%.
Methods: The KSCs were seeded in 24-well plates (previously coated with a collagen I solution) and cultured in culture medium for 24 hours. The medium was then replaced by assay medium and an artificial “wound gap” was generated by scratching the cell monolayers. The KSCs were labeled with calcien-AM. After 30 minutes of incubation (TO), the medium was replaced by assay medium containing or not (control condition) the test compounds or the reference compound (e.g. epidermal growth factor (EGF) at 10 ng/mL) and the cells were further incubated for 24 hours. The labeling with calcein-AM was renewed before the final timepoint. All experimental conditions were performed in triplicate. Cell migration into the migration zone was observed after 0 (TO) and 24 hours of incubation using a high-resolution imaging system INCell Analyzer′ 2200 (GE Healthcare) automated microscope and the artificial wound area was analyzed using ImageJ software. One picture was taken per well (objective lens×4). The artificial wound area was measured after 24 hours of incubation and compared to the area measured at TO in order to visualize and quantify the wound recovery. The effect of compounds on cell migration was compared to the untreated control.
The migration area (percentage of wound recovery) was calculated using the following formula: […]

[2] = tested on: PMA-induced IL-8 release by NCTC-2544 keratinocytes; experiment: PMA-induced IL-8 release, ELISA; type: cell-based, human; details: Dexamethasone 10^−7 M, PMA 0.1 μg/ml
Experimental: (§1) The effect of S-863d and S-863g on inflammation in keratinocytes was evaluated by measuring phorbol myristate acetate (PMA)-induced interleukin-8 (IL-8) and prostaglandin E2 (PGE2) release from a NCTC-2544 keratinocyte cell line by enzyme-linked immunosorbent assay (ELISA).
(§2) Materials: A NCTC-2544 human keratinocyte cell line (NCTC-2544 cells) was cultured at 37° C. in the presence of 5% CO2. The NCTC-2544 cells were grown in Dulbecco's Modified Eagle Medium (DMEM) supplemented with L-glutamine (2 mM), penicillin (50 U/mL), Streptomycin (50 μg/mL), and fetal calf serum (FCS) (10%). S-863d contained 3% phospholipids, 54% glycerin, 10% caprylic/capric triglyceride, 1% cannabidiol, 2% AlpineRoseActive™, 1% glycoin, 0.1% tocopherol, and water (ad 100%). The particle size (zAve) of S-863d was 90±50 nm, and the pH of S-863d was between 4.5 and 7.5. The total germ count of S-863d was <100 CFU/g. S-863d was stored at 4° C. in a dark space in a closed container. S-863g (negative control) contained 1% CBD in DMSO. S-863 d was evaluated at 0.004%, 0.02%, and 0.1%. S-863g was evaluated at 0.00044%, 0.0013%, and 0.004%.
(§3) Methods: The keratinocytes were seeded in 96-well plates and cultured for 24 hours in culture medium. The medium was then replaced by culture medium containing or not (control) the test compounds or the reference compound (dexamethasone at 10′ M for IL-8 assay and indomethacin at 10′ M for PGE2 assay) and the cells were pre-incubated for 24 hours. After pre-incubation, the medium was replaced by culture medium containing or not (control) the test compounds or the reference compounds and the inflammatory inducer phorbol myristate acetate (PMA) at 0.1 μg/mL was added. The cells were further incubated for 24 hours. A control without inducer was performed in parallel (non-stimulated control condition). All experimental conditions were performed in triplicate. IL-8 and PGE2 released in the culture supernatants were measured by ELISA.
(§4) Inhibition of IL-8 and PMA-induced PGE2 release was measured using the following formula: […]

[3] = tested on: PMA-induced PGE2 release by NCTC-2544 keratinocytes; experiment: PMA-induced PGE2 release, ELISA; type: cell-based, human
Experimental: as §1, §2, §3, §4

Compound: epidermal growth factor [EGF]
- Effect on KSC migration / wound recovery (in words) ([1]; all tested concentrations): marked stimulation
- Wound Recovery Mean ([1]; EGF 10 ng/ml): 73%
- Wound recovery % Control ([1]; EGF 10 ng/ml): 183 % Control
- 24 Hours Wound area ([1]; EGF 10 ng/ml, single image): 0.46 mm^2 and 0.50 mm^2 and 0.76 mm^2
- Wound Recovery ([1]; EGF 10 ng/ml, single image): 80% and 75% and 64%

Compound: C[C@@H]1C[C@H]2[C@@H]3CCC4=CC(=O)C=C[C@]4(C)[C@@]3(F)[C@@H](O)C[C@]2(C)[C@@]1(O)C(=O)CO [Dexamethasone, dexamethasone]
- IL-8 % Stimulated control [2]: 18%
- IL-8 Mean [2]: 22112 pg/mL
- IL-8 (pg/ml) dilution factor adjusted ([2]; single replicate): 18117 pg/mL and 23002 pg/mL and 25217 pg/mL
- inhibition at 0.1 µM ([2]; Homo sapiens, NCTC-2544, read-out: IL-8 % Relative inhibition): 82%

Compound: COc1ccc2c(c1)c(CC(=O)O)c(C)n2C(=O)c1ccc(Cl)cc1 [Indomethacin, indomethacin]
- inhibition at 1 µM ([3]; Homo sapiens, NCTC-2544, read-out: PGE2 % Relative inhibition): > 100%
- PGE2 Mean ([3]; Indomethacin 10^−6 M, PMA 0.1 μg/ml, non-diluted samples): <39 pg/mL
- PGE2 (pg/ml) dilution factor adjusted ([3]; Indomethacin 10^−6 M, PMA 0.1 μg/ml, non-diluted samples, single replicate): <39 pg/mL
- PGE2 % Stimulated control ([3]; Indomethacin 10^−6 M, PMA 0.1 μg/ml, extrapolated from values below detection limit): <0%
- Effect on PMA-induced PGE2 release (in words) ([3]; NCTC-2544 cells, PMA 0.1 μg/mL): completely inhibited
